Experimental data from PubChem BioAssay AID1963445 (Molecular Pharmacology Branch, DTP, NCI, 2024).
Where “and” joins values, the source holds several entries; their conditions need not be identical. Equal values may be shown once.

Tested on: MCF7 complex spheroid growth, % test/control
Experiment: Anticancer human tumor MCF7 cell line growth inhibition [Asc];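 note: spheroids exposed to compounds for 7 days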;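 for viability, T/C: 100% = DMSO vehicle control wells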
Conditions: for viability, T/C: stronger effect = lower value
Summary of the method: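 Stromal components (HUVEC and hMSC) are co-assembled with the cancer cells into multicellular spheroids. Drugs are then added singly or paired, at concentrations falling by half-log increments from a clinically achievable maximum, capped at 10 microM without known Cmax.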

[1] = curve of first compound, second compound 0.00949 µM
[2] = curve of first compound, second compound 0.03 µM
[3] = curve of first compound, second compound 0.0949 µM
[4] = curve of first compound, second compound 0.3 µM
[5] = curve of first compound, second compound 0.949 µM
[6] = curve of first compound, second compound 3 µM

CNC(C)C(=O)NC1CN(S(=O)(=O)c2cccc(S(=O)(=O)N3CCC4CCC(C(=O)NC(c5ccccc5)c5ccccc5)N4C(=O)C(NC(=O)C(C)NC)C3)c2)CCC2CCC(C(=O)NC(c3ccccc3)c3ccccc3)N2C1=O (stereo unspecified) + CCN1C(C(=O)NC23CCC(C(=O)O)(CC2)CC3)C(c2cccc(Cl)c2F)C2(C(=O)Nc3cc(Cl)ccc32)C12CCCCC2
IC50 [1]: 4.89 nM
IC50 [2]: 4.19 nM
IC50 [3]: < 3.16 nM
IC50 [4]: < 3.16 nM
IC50 [5]: < 3.16 nM
IC50 [6]: < 3.16 nM
viability, T/C (second compound 0.00949 µM, first compound 0.00316 µM): 69.8%
viability, T/C (second compound 0.00949 µM, first compound 0.01 µM): 17.4%
viability, T/C (second compound 0.00949 µM, first compound 0.0316 µM): 16.6%
viability, T/C (second compound 0.00949 µM, first compound 0.1 µM): 14.7%
viability, T/C (second compound 0.00949 µM, first compound 0.316 µM): 17.1%
viability, T/C (second compound 0.00949 µM, first compound 1 µM): 15.5%
viability, T/C (second compound 0.03 µM, first compound 0.00316 µM): 61.2%
viability, T/C (second compound 0.03 µM, first compound 0.01 µM): 13.8%
viability, T/C (second compound 0.03 µM, first compound 0.0316 µM): 13.1%
viability, T/C (second compound 0.03 µM, first compound 0.1 µM): 19%
viability, T/C (second compound 0.03 µM, first compound 0.316 µM): 15.5%
viability, T/C (second compound 0.03 µM, first compound 1 µM): 15.8%
viability, T/C (second compound 0.0949 µM, first compound 0.00316 µM): 32.7%
viability, T/C (second compound 0.0949 µM, first compound 0.01 µM): 8.77%
viability, T/C (second compound 0.0949 µM, first compound 0.0316 µM): 9.56%
viability, T/C (second compound 0.0949 µM, first compound 0.1 µM): 11.9%
viability, T/C (second compound 0.0949 µM, first compound 0.316 µM): 11.5%
viability, T/C (second compound 0.0949 µM, first compound 1 µM): 16%
viability, T/C (second compound 0.3 µM, first compound 0.00316 µM): 15.1%
viability, T/C (second compound 0.3 µM, first compound 0.01 µM): 8.53%
viability, T/C (second compound 0.3 µM, first compound 0.0316 µM): 9.64%
viability, T/C (second compound 0.3 µM, first compound 0.1 µM): 9.86%
viability, T/C (second compound 0.3 µM, first compound 0.316 µM): 11%
viability, T/C (second compound 0.3 µM, first compound 1 µM): 12.2%
viability, T/C (second compound 0.949 µM, first compound 0.00316 µM): 10.9%
viability, T/C (second compound 0.949 µM, first compound 0.01 µM): 10%
viability, T/C (second compound 0.949 µM, first compound 0.0316 µM): 7.29%
viability, T/C (second compound 0.949 µM, first compound 0.1 µM): 8.83%
viability, T/C (second compound 0.949 µM, first compound 0.316 µM): 10.5%
viability, T/C (second compound 0.949 µM, first compound 1 µM): 12%
viability, T/C (second compound 3 µM, first compound 0.00316 µM): 11.6%
viability, T/C (second compound 3 µM, first compound 0.01 µM): 9.65%
viability, T/C (second compound 3 µM, first compound 0.0316 µM): 9.98%
viability, T/C (second compound 3 µM, first compound 0.1 µM): 9.21%
viability, T/C (second compound 3 µM, first compound 0.316 µM): 12.1%
viability, T/C (second compound 3 µM, first compound 1 µM): 12.5%

NC1CCC(NC2CC2c2ccccc2)CC1 (stereo unspecified)
viability, T/C (compound 0.000316 µM): 89.7% and 112% and 107%
viability, T/C (compound 0.001 µM): 115% and 132% and 136%
viability, T/C (compound 0.00316 µM): 128% and 133% and 125%
viability, T/C (compound 0.01 µM): 129% and 106% and 132%
viability, T/C (compound 0.0316 µM): 136% and 104% and 108%
viability, T/C (compound 0.1 µM): 102% and 147% and 137%
IC50 (curve of compound): > 100 nM

NC(=O)C(=Cn1cnc(-c2cc(C(F)(F)F)cc(C(F)(F)F)c2)n1)c1cncnc1 + CCN1C(C(=O)NC23CCC(C(=O)O)(CC2)CC3)C(c2cccc(Cl)c2F)C2(C(=O)Nc3cc(Cl)ccc32)C12CCCCC2
IC50 [1]: 50 nM
IC50 [2]: 15.3 nM
IC50 [3]: < 0.949 nM
IC50 [4]: < 0.949 nM
IC50 [5]: < 0.949 nM
IC50 [6]: < 0.949 nM
viability, T/C (second compound 0.00949 µM, first compound 0.000949 µM): 109%
viability, T/C (second compound 0.00949 µM, first compound 0.003 µM): 107%
viability, T/C (second compound 0.00949 µM, first compound 0.00949 µM): 86.7%
viability, T/C (second compound 0.00949 µM, first compound 0.03 µM): 73.6%
viability, T/C (second compound 0.00949 µM, first compound 0.0949 µM): 23.7%
viability, T/C (second compound 0.00949 µM, first compound 0.3 µM): 14.1%
viability, T/C (second compound 0.03 µM, first compound 0.000949 µM): 89.2%
viability, T/C (second compound 0.03 µM, first compound 0.003 µM): 75.2%
viability, T/C (second compound 0.03 µM, first compound 0.00949 µM): 55.6%
viability, T/C (second compound 0.03 µM, first compound 0.03 µM): 44.4%
viability, T/C (second compound 0.03 µM, first compound 0.0949 µM): 17.8%
viability, T/C (second compound 0.03 µM, first compound 0.3 µM): 14.3%
viability, T/C (second compound 0.0949 µM, first compound 0.000949 µM): 45.5%
viability, T/C (second compound 0.0949 µM, first compound 0.003 µM): 48%
viability, T/C (second compound 0.0949 µM, first compound 0.00949 µM): 30.4%
viability, T/C (second compound 0.0949 µM, first compound 0.03 µM): 12.4%
viability, T/C (second compound 0.0949 µM, first compound 0.0949 µM): 9.36%
viability, T/C (second compound 0.0949 µM, first compound 0.3 µM): 12.6%
viability, T/C (second compound 0.3 µM, first compound 0.000949 µM): 25.9%
viability, T/C (second compound 0.3 µM, first compound 0.003 µM): 22.5%
viability, T/C (second compound 0.3 µM, first compound 0.00949 µM): 16%
viability, T/C (second compound 0.3 µM, first compound 0.03 µM): 13.9%
viability, T/C (second compound 0.3 µM, first compound 0.0949 µM): 11.8%
viability, T/C (second compound 0.3 µM, first compound 0.3 µM): 13.4%
viability, T/C (second compound 0.949 µM, first compound 0.000949 µM): 14.8%
viability, T/C (second compound 0.949 µM, first compound 0.003 µM): 11%
viability, T/C (second compound 0.949 µM, first compound 0.00949 µM): 9.57%
viability, T/C (second compound 0.949 µM, first compound 0.03 µM): 10.6%
viability, T/C (second compound 0.949 µM, first compound 0.0949 µM): 14%
viability, T/C (second compound 0.949 µM, first compound 0.3 µM): 14.7%
viability, T/C (second compound 3 µM, first compound 0.000949 µM): 13.1%
viability, T/C (second compound 3 µM, first compound 0.003 µM): 10.4%
viability, T/C (second compound 3 µM, first compound 0.00949 µM): 10.3%
viability, T/C (second compound 3 µM, first compound 0.03 µM): 13.8%
viability, T/C (second compound 3 µM, first compound 0.0949 µM): 16.1%
viability, T/C (second compound 3 µM, first compound 0.3 µM): 20.5%
